Legend:
human CYP11B2 = target: T1, human CYP11B2 (Homo sapiens, UniProt P19099); assay: G-402 cellular enzyme assay, human CYP11B2 (aldosterone release, HTRF); format: cell-based; settings: G-402 cells expressing human CYP11B2; 1 μM Deoxycorticosterone
T1 construct: expressed in transfected cells
T1 sequence (P19099 25-503): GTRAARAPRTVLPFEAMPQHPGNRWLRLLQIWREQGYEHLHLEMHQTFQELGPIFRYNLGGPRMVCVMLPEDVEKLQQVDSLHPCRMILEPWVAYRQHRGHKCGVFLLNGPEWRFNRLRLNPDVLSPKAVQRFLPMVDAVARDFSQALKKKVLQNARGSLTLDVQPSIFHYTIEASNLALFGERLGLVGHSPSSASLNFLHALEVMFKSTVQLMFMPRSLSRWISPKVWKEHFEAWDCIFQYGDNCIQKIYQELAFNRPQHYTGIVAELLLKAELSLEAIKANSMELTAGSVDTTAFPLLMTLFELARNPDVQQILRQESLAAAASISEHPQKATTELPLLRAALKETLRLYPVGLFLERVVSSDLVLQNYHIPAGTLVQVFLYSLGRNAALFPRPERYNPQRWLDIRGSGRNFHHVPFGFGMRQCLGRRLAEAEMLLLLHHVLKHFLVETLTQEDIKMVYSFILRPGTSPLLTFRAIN
Text: (§1) Herein we identified the use of the G-402 cell line as a host cell to ectopically express (transiently or stably) enzymes of the CYP11 family. Specifically we developed stable G-402 cells expressing ectopically human CYP11B1, human CYP11B2, human CYP11A1, cynmolgus CYP11B1 or cynomolgus CYP11B2 enzyme activity. Importantly the identified cell line G-402 expresses co-factors (adrenodoxin and adrenodoxin reductase) important for the activity of the CYP11 family and no relevant enzyme activity of the CYP11 family (in comparison to H295R cells) was detected in these cells. Therefore the G-402 cell line is uniquely suited as a host cell for the ectopic expression of enzymes from the CYP11 family.
(§2) The expression plasmids contains the ORF for either human/cyno CYP11B1 or CYP11B2 under the control of a suitable promoter (CMV-promoter) and a suitable resistance marker (neomycin). Using standard techniques the expression plasmid is transfected into G-402 cells and these cells are then selected for expressing the given resistance markers. Individual cell-clones are then selected and assessed for displaying the desired enzymatic activity using 11-Deoxycorticosterone (Cyp11B2) or 11-Deoxycortisol (Cyp11B1) as a substrate.
(§3) G-402 cells expressing CYP11 constructs were established as described above and maintained in McCoy's 5a Medium Modified, ATCC Catalog No. 30-2007 containing 10% FCS and 400 μg/ml G418 (Geneticin) at 37° C. under an atmosphere of 5% CO2/95% air.
(§4) Cellular enzyme assays were performed in DMEM/F12 medium containing 2.5% charcoal treated FCS and appropriate concentration of substrate (0.3-10 uM 11-Deoxycorticosterone, 11-Deoxycortisol or Corticosterone). For assaying enzymatic activity, cells were plated onto 96 well plates and incubated for 16 h. An aliquot of the supernatant is then transferred and analyzed for the concentration of the expected product (Aldosterone for CYP11B2; Cortisol for CYP11B1). The concentrations of these steroids can be determined using HTRF assays from CisBio analyzing either Aldosterone or Cortisol.
(§5) Inhibition of the release of produced steroids can be used as a measure of the respective enzyme inhibition by test compounds added during the cellular enzyme assay. The dose dependent inhibition of enzymatic activity by a compound is calculated by means of plotting added inhibitor concentrations (x-axes) vs. measured steroid/product level (y-axes). The inhibition is then calculated by fitting the following 4-parameter sigmoidal function (Morgan-Mercer-Flodin (MMF) model) to the raw data points using the least squares method:
(§6) [formula] wherein, A is the maximum y value, B is the EC50 factor determined using XLFit, C is the minimum y value and D is the slope value.
(§7) EC50 values for compounds claimed herein were tested with the G402-based assay system described. Cyp11B2 enzyme activity was tested in presence of 1 μM Deoxycorticosterone and variable amounts of inhibitors; Cyp11B1 enzyme activity was tested in presence of 1 μM Deoxycortisol and variable amounts of inhibitors.

human CYP11B1 = target: T2, human CYP11B1 (Homo sapiens, UniProt P15538); assay: G-402 cellular enzyme assay, human CYP11B1 (cortisol release, HTRF); format: cell-based; settings: G-402 cells expressing human CYP11B1; 1 μM Deoxycortisol
T2 construct: expressed in transfected cells
T2 sequence (P15538 25-503): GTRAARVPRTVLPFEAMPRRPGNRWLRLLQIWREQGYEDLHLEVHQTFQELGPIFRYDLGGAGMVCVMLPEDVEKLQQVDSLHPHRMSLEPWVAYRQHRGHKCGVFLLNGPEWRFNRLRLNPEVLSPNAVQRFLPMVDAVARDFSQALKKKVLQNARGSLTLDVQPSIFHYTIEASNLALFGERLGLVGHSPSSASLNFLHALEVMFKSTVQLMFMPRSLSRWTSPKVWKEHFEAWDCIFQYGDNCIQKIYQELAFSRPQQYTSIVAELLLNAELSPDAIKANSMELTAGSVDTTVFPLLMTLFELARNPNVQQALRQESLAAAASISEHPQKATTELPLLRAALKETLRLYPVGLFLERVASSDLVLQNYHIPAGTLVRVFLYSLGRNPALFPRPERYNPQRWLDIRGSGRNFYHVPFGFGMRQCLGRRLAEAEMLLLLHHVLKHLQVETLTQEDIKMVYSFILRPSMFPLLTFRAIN
Text: as §1, §2, §3, §4, §5, §6, §7

CN1C(=O)CCc2cc(-c3cncc(Cn4cccc(F)c4=O)c3)c(F)cc21 [Example 19, 7-Fluoro-6-[5-(3-fluoro-2-oxo-2H-pyridin-1-ylmethyl)-pyridin-3-yl]-1-methyl-3,4-dihydro-1H-quinolin-2-one]
EC50 (human CYP11B2): 0.0005 µM
EC50 (human CYP11B1): 0.0238 µM

Cc1ccn(Cc2cncc(-c3cc4c(cc3F)N(C)C(=O)CC4)c2)c(=O)c1 [Example 20, 7-Fluoro-1-methyl-6-[5-(4-methyl-2-oxo-2H-pyridin-1-ylmethyl)-pyridin-3-yl]-3,4-dihydro-1H-quinolin-2-one]
EC50 (human CYP11B2): 0.0116 µM
EC50 (human CYP11B1): 0.506 µM

Cc1nccc(=O)n1Cc1cncc(-c2ccc3c(c2)CCC(=O)N3C)c1 [Example 12, 1-Methyl-6-[5-(2-methyl-6-oxo-6H-pyrimidin-1-ylmethyl)-pyridin-3-yl]-3,4-dihydro-1H-quinolin-2-one]
EC50 (human CYP11B2): 0.0074 µM
EC50 (human CYP11B1): 0.256 µM

CN1C(=O)CCc2cc(-c3cncc(Cn4c(F)cccc4=O)c3)ccc21 [Example 18, 6-[5-(6-Fluoro-2-oxo-2H-pyridin-1-ylmethyl)-pyridin-3-yl]-1-methyl-3,4-dihydro-1H-quinolin-2-one]
EC50 (human CYP11B2): 0.0041 µM
EC50 (human CYP11B1): 0.172 µM

Cc1cccc(=O)n1Cc1cncc(-c2ccc3c(c2)CCC(=O)N3C)c1 [Example 7, 1-Methyl-6-[5-(6-methyl-2-oxo-2H-pyridin-1-ylmethyl)-pyridin-3-yl]-3,4-dihydro-1H-quinolin-2-one]
EC50 (human CYP11B2): 0.0088 µM
EC50 (human CYP11B1): 0.82 µM

CN1C(=O)CCc2cc(-c3cncc(Cn4c(=O)sc5ccccc54)c3)ccc21 [Example 1, 1-Methyl-6-[5-(2-oxo-benzothiazol-3-ylmethyl)-pyridin-3-yl]-3,4-dihydro-1H-quinolin-2-one]
EC50 (human CYP11B2): 0.0014 µM
EC50 (human CYP11B1): 0.177 µM

Cc1c(Cn2c(C)cccc2=O)cncc1-c1cc2c(cc1F)N(C)C(=O)CC2 [Example 24, 7-Fluoro-1-methyl-6-[4-methyl-5-(6-methyl-2-oxo-2H-pyridin-1-ylmethyl)-pyridin-3-yl]-3,4-dihydro-1H-quinolin-2-one]
EC50 (human CYP11B2): 0.0165 µM
EC50 (human CYP11B1): 2.14 µM

Cc1ccn(Cc2cncc(-c3ccc4c(c3)CCC(=O)N4C)c2)c(=O)c1 [Example 8, 1-Methyl-6-[5-(4-methyl-2-oxo-2H-pyridin-1-ylmethyl)-pyridin-3-yl]-3,4-dihydro-1H-quinolin-2-one]
EC50 (human CYP11B2): 0.027 µM
EC50 (human CYP11B1): 1.05 µM

CN1C(=O)CCc2cc(-c3cncc(Cn4cccc(Cl)c4=O)c3)ccc21 [Example 4, 6-[5-(3-Chloro-2-oxo-2H-pyridin-1-ylmethyl)-pyridin-3-yl]-1-methyl-3,4-dihydro-1H-quinolin-2-one]
EC50 (human CYP11B2): 0.0293 µM
EC50 (human CYP11B1): 1.22 µM

CN1C(=O)CCc2cc(-c3cncc(Cn4cc(C#N)ccc4=O)c3)ccc21 [Example 16, 1-[5-(1-Methyl-2-oxo-1,2,3,4-tetrahydro-quinolin-6-yl)-pyridin-3-ylmethyl]-6-oxo-1,6-dihydro-pyridine-3-carbonitrile]
EC50 (human CYP11B2): 0.0673 µM
EC50 (human CYP11B1): 2.42 µM

CN1C(=O)CCc2cc(-c3cncc(Cn4cc(Cl)ccc4=O)c3)c(F)cc21 [Example 21, 6-[5-(5-Chloro-2-oxo-2H-pyridin-1-ylmethyl)-pyridin-3-yl]-7-fluoro-1-methyl-3,4-dihydro-1H-quinolin-2-one]
EC50 (human CYP11B2): 0.0151 µM
EC50 (human CYP11B1): 0.569 µM

Cc1c(Cn2c(F)cccc2=O)cncc1-c1cc2c(cc1F)N(C)C(=O)CC2 [Example 27, 7-Fluoro-6-[5-(6-fluoro-2-oxo-2H-pyridin-1-ylmethyl)-4-methyl-pyridin-3-yl]-1-methyl-3,4-dihydro-1H-quinolin-2-one]
EC50 (human CYP11B2): 0.001 µM
EC50 (human CYP11B1): 0.0913 µM

Cc1c(Cn2cccc(F)c2=O)cncc1-c1cc2c(cc1F)N(C)C(=O)CC2 [Example 26, 7-Fluoro-6-[5-(3-fluoro-2-oxo-2H-pyridin-1-ylmethyl)-4-methyl-pyridin-3-yl]-1-methyl-3,4-dihydro-1H-quinolin-2-one]
EC50 (human CYP11B2): 0.001 µM
EC50 (human CYP11B1): 0.0448 µM

CN1C(=O)CCc2cc(-c3cncc(Cn4cc(Cl)ccc4=O)c3)ccc21 [Example 9, 6-[5-(5-Chloro-2-oxo-2H-pyridin-1-ylmethyl)-pyridin-3-yl]-1-methyl-3,4-dihydro-1H-quinolin-2-one]
EC50 (human CYP11B2): 0.0105 µM
EC50 (human CYP11B1): 0.516 µM

CN1C(=O)CCc2cc(-c3cncc(Cn4cc(C(F)(F)F)cc(F)c4=O)c3)ccc21 [Example 5, 6-[5-(3-Fluoro-2-oxo-5-trifluoromethyl-2H-pyridin-1-ylmethyl)-pyridin-3-yl]-1-methyl-3,4-dihydro-1H-quinolin-2-one]
EC50 (human CYP11B2): 0.0132 µM
EC50 (human CYP11B1): 1.08 µM

CN1C(=O)CCc2cc(-c3cncc(Cn4c(Cl)cccc4=O)c3)ccc21 [Example 17, 6-[5-(6-Chloro-2-oxo-2H-pyridin-1-ylmethyl)-pyridin-3-yl]-1-methyl-3,4-dihydro-1H-quinolin-2-one]
EC50 (human CYP11B2): 0.0022 µM
EC50 (human CYP11B1): 0.363 µM

CN1C(=O)CCc2cc(-c3cncc(Cn4c(Cl)cccc4=O)c3)c(F)cc21 [Example 22, 6-[5-(6-Chloro-2-oxo-2H-pyridin-1-ylmethyl)-pyridin-3-yl]-7-fluoro-1-methyl-3,4-dihydro-1H-quinolin-2-one]
EC50 (human CYP11B2): 0.0002 µM
EC50 (human CYP11B1): 0.0071 µM

CN1C(=O)CCc2cc(-c3cncc(Cn4cc(C(F)(F)F)ccc4=O)c3)ccc21 [Example 15, 1-Methyl-6-[5-(2-oxo-5-trifluoromethyl-2H-pyridin-1-ylmethyl)-pyridin-3-yl]-3,4-dihydro-1H-quinolin-2-one]
EC50 (human CYP11B2): 0.0196 µM
EC50 (human CYP11B1): 0.68 µM

CN1C(=O)CCc2cc(-c3cncc(Cn4ccc(C#N)cc4=O)c3)ccc21 [Example 14, 1-[5-(1-Methyl-2-oxo-1,2,3,4-tetrahydro-quinolin-6-yl)-pyridin-3-ylmethyl]-2-oxo-1,2-dihydro-pyridine-4-carbonitrile]
EC50 (human CYP11B2): 0.0088 µM
EC50 (human CYP11B1): 0.356 µM

CN1C(=O)CCc2cc(-c3cncc(Cn4cccc(C(F)(F)F)c4=O)c3)ccc21 [Example 11, 1-Methyl-6-[5-(2-oxo-3-trifluoromethyl-2H-pyridin-1-ylmethyl)-pyridin-3-yl]-3,4-dihydro-1H-quinolin-2-one]
EC50 (human CYP11B2): 0.0181 µM
EC50 (human CYP11B1): 0.738 µM

CN1C(=O)CCc2cc(-c3cncc(Cn4cccc(F)c4=O)c3)ccc21 [Example 6, 6-[5-(3-Fluoro-2-oxo-2H-pyridin-1-ylmethyl)-pyridin-3-yl]-1-methyl-3,4-dihydro-1H-quinolin-2-one]
EC50 (human CYP11B2): 0.0327 µM
EC50 (human CYP11B1): 4.07 µM

CN1C(=O)CCc2cc(-c3cncc(Cn4cc(F)ccc4=O)c3)ccc21 [Example 2, 6-[5-(5-Fluoro-2-oxo-2H-pyridin-1-ylmethyl)-pyridin-3-yl]-1-methyl-3,4-dihydro-1H-quinolin-2-one]
EC50 (human CYP11B2): 0.0185 µM
EC50 (human CYP11B1): 0.935 µM

Source: patent publication US9593107B2, “Dihydroquinoline-2-one derivatives” (Hoffmann-La Roche Inc., priority 2014, dated 2017)
